Experimental data as given in publication PMC11714206, “Massively Parallel Screening of Toll/Interleukin‐1 Receptor (TIR)‐Derived Peptides Reveals Multiple Toll‐Like Receptors (TLRs)‐Targeting Immunomodulatory Peptides” (Advanced Science, 2024).

Target: T1, MyD88^TIR (Homo sapiens, UniProt Q99836)
T1 construct: MyD88 (residues 148–296); 6xHis; made in house; host or cells: E. coli BL21 (DE3)
Assay: T‐Surf phage library (P8 and P3) selection against MyD88^TIR, four rounds, NGS read counts
Type: binding
Details: for P8_MyD88 Rank (after) / P8_MyD88 Rank (before): P8 library; for P3_MyD88 Rank (after) / P3_MyD88 Rank (before): P3 library; for Population: 4th round of selection against MyD88 TIR, share of NGS reads
Summary of the method: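 P8 and P3 T‐Surf libraries panned against plate-coated TIR domains (5 µg mL^−1), 1 h binding at RT, acid elution and TG1/helper-phage amplification per round. After four rounds, pools were PCR-barcoded and sequenced (NovaSeq, 100 bp paired-end, Phred ≥30); peptides ranked by read counts.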

[1] = 4R selection against MyD88, rank after grouping
[2] = 4R selection against MyD88, rank before grouping
[3] = selection against MyD88, rank by count after grouping
[4] = selection against MyD88, rank by count before grouping
[5] = selection against MyD88 TIR, rank by count after grouping
[6] = selection against MyD88 TIR, rank by count before grouping
[7] = selection against MyD88, rank after grouping
[8] = selection against MyD88, rank before grouping
[9] = P8_MyD88: rank by NGS read count after grouping
[10] = P8_MyD88: rank by NGS read count before grouping
[11] = P3_MyD88: rank by count after grouping
[12] = P3_MyD88: rank by count before grouping
[13] = P8_MyD88: rank by count after grouping
[14] = P8_MyD88: rank by count before grouping
[15] = P8_MyD88 pool: P8 T-Surf phage library

T1 sequence (Q99836 148-296): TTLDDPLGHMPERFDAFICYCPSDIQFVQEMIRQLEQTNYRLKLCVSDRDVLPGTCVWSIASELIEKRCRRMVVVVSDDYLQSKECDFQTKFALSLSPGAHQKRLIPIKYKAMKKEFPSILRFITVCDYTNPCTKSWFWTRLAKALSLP

## DPQVLEWIYARLFSQM
[1]
  P8_MyD88 Rank (after): 649
[2]
  P8_MyD88 Rank (before): 2649

## LGYHWIDWENLVGFED
[1]
  P8_MyD88 Rank (after): 630
[2]
  P8_MyD88 Rank (before): 3283

## KEVEVWRDALTKVVGL
[3]
  P3_MyD88 Rank (after): 713
[4]
  P3_MyD88 Rank (before): 3606

## EWALHQLQQIIKWHQT
[5]
  P8_MyD88 Rank (after): 212
[6]
  P8_MyD88 Rank (before): 323

## LKCGEPYFWSKLRYSI
[7]
  P3_MyD88 Rank (after): 578
[8]
  P3_MyD88 Rank (before): 2406

## YASRSWYLDELVHIPW
[9]
  Rank (after): 1022
[10]
  Rank (before): 1842

## KNLFNELVSKNIRTL
[11]
  Rank (after): 103
[12]
  Rank (before): 542

## LTDVANILGYHWIDWE
[13]
  Rank (after): 104
[14]
  Rank (before): 110
[15]
  Population: 0.02%

## SFSFPLDQLSYFLNLP
[13]
  Rank (after): 136
[14]
  Rank (before): 147
[15]
  Population: 0.0112%

## YLQWGYSWFWDRLRFA
[5]
  P3_MyD88 Rank (after): 259
[6]
  P3_MyD88 Rank (before): 1558

## LKWGDPYFWSKLLYSM
[5]
  P3_MyD88 Rank (after): 247
[6]
  P3_MyD88 Rank (before): 2423

## YAFTGHLHRYLVQRGV
P3_MyD88 pool: P3 T-Surf phage library
  Population: 0.00378%

## DMQDIEWFYVKLIVSI
[3]
  P8_MyD88 Rank (after): 754
[4]
  P8_MyD88 Rank (before): 3064

## LVANEISKKIKIFAII
[7]
  P3_MyD88 Rank (after): 533
[8]
  P3_MyD88 Rank (before): 2319

## DWVWDYLLPDLLGPAG
[3]
  P8_MyD88 Rank (after): 700
[4]
  P8_MyD88 Rank (before): 2416

## LGYDWIVWAYFVGIED
[9]
  Rank (after): 894
[10]
  Rank (before): 3219

## YAFTGHLRKQSGEFG
[7]
  P3_MyD88 Rank (after): 486
[8]
  P3_MyD88 Rank (before): 1491

## LNVESWRKALEKAGKL
[5]
  P3_MyD88 Rank (after): 230
[6]
  P3_MyD88 Rank (before): 2403

## AEFWERLRMTVLETME
[13]
  Rank (after): 398
[14]
  Rank (before): 1024

## VANILGYHWMDWVYFV
[7]
  P8_MyD88 Rank (after): 563
[8]
  P8_MyD88 Rank (before): 2191

## YASSWWLRELLQIA
[3]
  P8_MyD88 Rank (after): 686
[4]
  P8_MyD88 Rank (before): 1851

## YLKVESWRQALEKAGKL
[5]
  P3_MyD88 Rank (after): 268
[6]
  P3_MyD88 Rank (before): 864

## YAFTGHLHSYLVQRSV
[11]
  Rank (after): 125
[12]
  Rank (before): 1530

## CALDELLHILHARELF
[3]
  P8_MyD88 Rank (after): 724
[4]
  P8_MyD88 Rank (before): 1346

## NQWPNALTAAANLRGW
[11]
  Rank (after): 132
[12]
  Rank (before): 3534

## AGDKGTDKIQTPLKNA
[7]
  P3_MyD88 Rank (after): 484
[8]
  P3_MyD88 Rank (before): 1942

## EHHLDLPRGKAIKPAILG
[11]
  Rank (after): 152
[12]
  Rank (before): 2117

## YASSSWELDELLRIPY
[9]
  Rank (after): 966
[10]
  Rank (before): 1904

## ELDFSHFWLFDAGGEA
[15]
  Population: 0.0154%

## DPHDLVWFYERLVSLF
[5]
  P8_MyD88 Rank (after): 230
[6]
  P8_MyD88 Rank (before): 2631

## DPQDLDWFYERLVSPL
[13]
  Rank (after): 99
[14]
  Rank (before): 396

## YAASTWWHTVLARLMG
[7]
  P8_MyD88 Rank (after): 540
[8]
  P8_MyD88 Rank (before): 1760

## DHHLDLPRGKAIQPDILG
[7]
  P3_MyD88 Rank (after): 554
[8]
  P3_MyD88 Rank (before): 2014

## LKWGSVFLEQTALCD
[5]
  P3_MyD88 Rank (after): 222
[6]
  P3_MyD88 Rank (before): 2409

## DRVWDYLLPNLEGQAG
[7]
  P8_MyD88 Rank (after): 545
[8]
  P8_MyD88 Rank (before): 3073

## DPQDLLRFYEHLVSLF
[13]
  Rank (after): 472
[14]
  Rank (before): 2901

## YTALTNSGFHTFRVNV
[1]
  P3_MyD88 Rank (after): 659
[2]
  P3_MyD88 Rank (before): 1668

## LGYHCHDREYFVGIED
[3]
  P8_MyD88 Rank (after): 717
[4]
  P8_MyD88 Rank (before): 3311

## EWIREQLRPALKNGW
[11]
  Rank (after): 434
[12]
  Rank (before): 2155

## PQDLEWFYERMVGLIL
[9]
  Rank (after): 879
[10]
  Rank (before): 3429
